# Data as given in patent US20250100962A1 (CITY OF HOPE, priority 2023, published 2025).
# Key:
# [1] = system: C57/BL6 mice; experiment: Metabolic cage monitoring of C57/BL6 mice after intraperitoneal injection; format: in vivo, mouse; conditions: 5 mg/Kg IP daily
# Experimental: To examine potential effects of CM002 on central clock located in suprachiasmatic nuclei that controls food intake, activity and sleep rhythms, we administered CM002 (5 mg/Kg) together with DMSO as vehicle control using daily IP injections in normal C57/BL6 mice. Mice received daily injections for 3 doses and their food and water intake, activity level and energy expenditure were monitored using metabolic cages for 3 days.
# [2] = system: mdx mice; format: in vivo; conditions: 10 mg/kg IP daily, 3 doses; vs non-treated or DMSO
# Experimental: FIGS. 48A-48C. Systemic delivery of CM002 by intraperitoneal injection improves muscle strength in dystrophic mdx mice. Based on the PK analysis, we determined the maximal lethal dose in mdx mice via daily intraperitoneal injections using escalating doses. Starting doses were tested at 10, 20 and 30 mg/Kg/day, for 3 consecutive days in male or female mdx mice (FIG. 48A).
# [3] = system: mdx primary myoblasts; experiment: EdU proliferation in mdx primary myoblasts; format: cell-based, mouse; conditions: 0.5-1 μM; 6 hours
# Text: FIGS. 16A-16B. Pro-myogenic effect of chlorhexidine on dystrophin-deficient mdx primary myoblasts. FIG. 16A: We used primary myoblasts isolated from male mdx mice as a cellular model to test the effect of CHX on myogenesis. […] Both of the pro-myogenic and proliferative effects of CHX observed in mdx primary myoblasts were consistent with prior findings from C2C12 myoblasts. Additional validations of these effects are on-going using myoblasts derived from human DMD patients.
# [4] = system: CLOCK and Bmal1 interaction; experiment: Co-immunoprecipitation of Bmal1 with Myc-CLOCK; format: cell-based
# [5] = system: CLOCK/Bmal1-mediated transcription; experiment: Luciferase assay: 293A cells transfected with Bmal1 and CLOCK, Period2-driven luciferase reporter; format: cell-based; conditions: 0.2 μM for 6 hours, Per2-luciferase reporter
# Experimental: Cells were seeded at 4×10^5 concentration on 24 well plates. The seeding density was decided after trying several densities and choosing the one that after 24 h lead to 90% confluence. At 90% confluence cell transfection was performed using Opti-MEMTM Reduced Serum Medium (Gibco-Thermo Fisher CN:31985062) with PGL2, PRL, pcDNA3.0-BMAL1-His, PcDNA3.0-6×Myc-CLOCK (AddGene CN: 47334) pcDNA3.0-3×FLAG-cry2 plasmids and PEI max 40 k (Polysciences Inc CN: 24765-1). After 24 h of transfection, cells were treated with desired compounds and controls in 10% FBS 1% PSG DMEM media for desired times. Cells were extracted with 1×PLB provided in the Dual-Luciferase® Reporter Assay Kit (Promega CN: E1910) and transferred to 96-well black plate to be treated with LARII and Stop & Glo components according to protocol of the Dual-Luciferase® Reporter Assay Kit (Promega CN: E1910). Luminescence was measured on microplate (ELISA) reader (TECAN infinite […]). The mean and standard deviation values were calculated for each well and graphed.
# [6] = system: 3T3-L1 preadipocytes; experiment: Clock and Wnt gene expression in 3T3-L1 cells; format: cell-based; conditions: RT-qPCR
# Experimental: RNA extraction and RT-qPCR analysis. PureLink RNA Mini Kit (Invitrogen) were used to isolate total RNA from cells. cDNA was generated using Revert Aid RT kit (ThermoFisher) and quantitative PCR was performed using SYBR Green Master Mix (Thermno Fisher) in triplicates on ViiA 7 Real-Time PCR System (Applied Biosystems). Relative expression levels were determined using the comparative Ct method with normalization to 361B4 as internal control.
# [7] = system: C2C12 myoblast cell line; experiment: MTT cell viability of C2C12 myoblasts; format: cell-based; conditions: 0.2-5 μM for 48 hours
# Experimental: Cells were seeded at 5×10^4 concentration in 100 μl culture medium into 96 wells flat bottom microplates and treated after 24 h with desired compounds and controls. After desired incubation periods, cells were treated with MTT labeling reagent 1× (MTT (3-[4,5-dimethylthiazol-2-yl]-2,5-diphenyltetrazolium bromide labeling reagent, 5 mg/ml in PBS, Roche Cell Proliferation Kit I (MTT)) and Solubilization buffer 1× (10% SDS in 0.01 M HCl and left overnight. Next morning absorbance was measured at 570 nm and 700 nm on microplate (ELISA) reader (TECAN infinite M200pro). The mean and standard deviation values were calculated for each well and graphed.
# FIGS. 41A-41D. Effect of Chlorhexidine (CHX) and CM002 treatment on viability of mouse and human myoblasts. To determine potential toxic effects of CHX and CM002, we treated mouse C2C12 myoblast cell line with increasing concentrations from 0.2-5 μM for 48 hours and determined cell viability using the MTT assay (FIG. 41A). […] Considering the inflammatory milieus in dystrophic muscles, we further tested the tolerance of myoblasts to these molecules in the presence of inflammatory stimuli, a cytokine cocktail (CC) consisted of 10 ng/mL IL-1β, 100 ng/mL IFN-γ and 25 ng/mL of TNF-α (FIG. 41B). […] Lastly, human primary myoblasts derived from Duchene Muscular Dystrophy (DMD) patients were used to determine their tolerance to these compounds.
Compound,daily ambulatory activity levels [1],water consumption [1],"accumulative food consumption, relative to normal food intake level ([1]; 3 doses, after 3 days) [%]",energy expenditure ([1]; calculated from oxygen consumption),increase of grip strength [2] [%],increase of rate of proliferation (EdU) [3] [%],Bmal1 interaction with CLOCK C267 mutant ([4]; Cysteine to Alanine mutant of CLOCK),"Bmal1 immunoprecipitated by Myc-CLOCK (CLOCK/Bmal1 interaction) ([4]; wild-type CLOCK, CHX 0.5 and 1 μM)",induction of CLOCK/Bmal1-activated transcription [5] [%],core clock gene expression [6],concentration at which number of viable cells drops [7] [nM]
CCCCCC/C=N/C(=N)NC(=N)Nc1ccc(Cl)cc1 [CM002],tendency toward reduction although not significantly altered,remains comparable between groups,~25,persistently elevated,~16,–,–,–,–,–,–
"[H]/N=C(\N/C(=N/[H])NCCCCCCNC(=N)NC(=N)Nc1ccc(Cl)cc1)Nc1ccc(Cl)cc1 [CHX, chlorhexidine]",–,–,–,–,–,~22,failed to increase Bmal1 interaction with CLOCK C267 mutant,sufficient to augment their interaction,~26,Largely similar effects on inducing core clock genes,2500
